Here are results for five compounds from US20250009739A1, “METHOD OF TREATING A SKIN DISORDER” (PHAMRI Norden AB, priority 2021, published 2025).

For orientation: IC50 means the concentration that gives 50% inhibition.

The structures appear in SMILES notation.

Series [1] has as its system ENaC. Particulars: cited from earlier work.
In another series the target is NCX (Homo sapiens, UniProt P32418). Particulars: cited from earlier work.
The conditions of series [2]: human oral dosing 10 mg, adults; cited from earlier work.
A further series relates to CXCL1. Description: CXCL1 expression in TNFα-stimulated primary keratinocytes (Luminex on supernatant). The class given is cell-based, human. Particulars: CXCL1, IL1a and TNFα in TNFα-stimulated keratinocytes; concentration where ENaC, NCX1 and NHE1 were predicted to be targeted. As to the method: Primary keratinocytes were stimulated with TNFα (5 ng/ml) for 24 hours and expression of pro-inflammatory cytokines involved in inflammatory skin disease was analyzed with benzamil as inhibitor and compared to inhibitors with different affinity to ENaC/NCX1/NHE1 (amiloride), ENaC but not NCX1 and NHE1 (Camostat mesilate), NCX1 but not ENaC or NHE1 (KB-R7943) or NHE but not ENaC or NCX1 (zoniporide).
Primary human keratinocytes were thawed according to manufacturer's instructions, washed in growth medium (GM) and viability assessed via Tryphan blue. Cells were incubated at 37° C. with 5% CO2. After confluence, a stock cell solution of 1.5×10^5 cells/ml was prepared in GM. 200 μL of the cell suspension was added to each well of respective 96 well plates for a total of 3×10^4 cells/well. Cells were incubated at 37° C. with 5% CO2 overnight for adherence. After overnight incubation, cell culture media was removed from each well and 100 μL of fresh GM was added to each well. Appropriate concentrations of inhibitor compound, vehicle and TNFα was prepared in GM of a final volume of 3 ml. […]
100 μl of each treatment was added to appropriate wells. […] 24 hours post TNFα stimulation, the fluorescence of each well was read at 544/590 nm for cell viability. […] The inflammatory cytokines TNFα, CXCL1 and IL1a in the cell culture supernatants were analysed by Luiminex. […]

Series [3] has as its system Primary human keratinocytes. The experiment in a line: Proliferation / cell viability (alamar blue) of TNFα-stimulated keratinocytes. The class given is cell-based. Particulars: low-level inflamed keratinocyte conditions (TNFα 5 ng/ml, 24 hours). The procedure: Primary human keratinocytes were thawed according to manufacturer's instructions, washed in growth medium (GM) and viability assessed via Tryphan blue. Cells were incubated at 37° C. with 5% CO2. After confluence, a stock cell solution of 1.5×10^5 cells/ml was prepared in GM. 200 μL of the cell suspension was added to each well of respective 96 well plates for a total of 3×10^4 cells/well. Cells were incubated at 37° C. with 5% CO2 overnight for adherence. After overnight incubation, cell culture media was removed from each well and 100 μL of fresh GM was added to each well. Appropriate concentrations of inhibitor compound, vehicle and TNFα was prepared in GM of a final volume of 3 ml. Concentrations of non-benzamil inhibitors were chosen to be 0.1×, 1× and 10× the IC50 for each primary target. […] Concentration of TNF alpha was selected to recapitulate a low level of pro-inflammatory cytokine stimulation.
100 μl of each treatment was added to appropriate wells. Samples were incubated for 24 hours. 20 hours post TNFα stimulation, 20 μL of alamar blue was added for each well. Cells were incubated for 4 hours at 37° C. 24 hours post TNFα stimulation, the fluorescence of each well was read at 544/590 nm for cell viability. […] The inflammatory cytokines TNFα, CXCL1 and IL1a in the cell culture supernatants were analysed by Luiminex. […]

Series [4] relates to ENaC. To be noted: cited from earlier work. This is another data set of the same source.

With `CN(C)C(=O)COC(=O)Cc1ccc(OC(=O)c2ccc(NC(=N)N)cc2)cc1` [Camostat Mesilate, Camostat mesilate], the IC50 in the series with ENaC [1] was 0.05 µM.
Regarding `N=C(N)SCCc1ccc(OCc2ccc([N+](=O)[O-])cc2)cc1` [KB-R7943], at NCX, the IC50 is 5 to 10 µM.
For `N=C(N)NC(=O)c1nc(Cl)c(N)nc1N` [amiloride], the IC50 with ENaC [1] is 0.1 µM. Moreover, in series [2], the serum concentration was 20.6 ng/mL.
As to `NC(=NCc1ccccc1)NC(=O)c1nc(Cl)c(N)nc1N` [benzamil], the “efficacious concentration for reducing cytokine expression” value in the series with CXCL1 was “above 1 uM”. The proliferation result in series [3] (FIG. 6) is “does not reduce proliferation”; in series [3] (FIG. 6, listed as Benzamil), “did not reduce proliferation”.
For `NC(=Nc1ccccc1)NC(=O)c1nc(Cl)c(N)nc1N` [phenamil], the “in vivo efficacy specifically on ENaC relative to amiloride” value with ENaC [4] is “equivalent to amiloride”.
